Experimental data from PubChem BioAssay (NCI).
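Results reflect a 48-hour exposure of cells in 96-well plates to compound at five concentrations. TGI: total growth inhibition.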

How the values were obtained:
Assay in all cases: NCI tumour cell line growth inhibition, 48 h
SK-OV-3 ovarian = test system: SK-OV-3 ovarian
SW-620 colon = test system: SW-620 colon
SN12C renal = test system: SN12C renal
HCT-15 colon = test system: HCT-15 colon
MDA-N = test system: MDA-N
HS 578T breast = test system: HS 578T breast
OVCAR-4 ovarian = test system: OVCAR-4 ovarian
EKVX NSCLC = test system: EKVX NSCLC
DLD-1 colon = test system: DLD-1 colon
HOP-18 NSCLC = test system: HOP-18 NSCLC
LOX IMVI melanoma = test system: LOX IMVI melanoma
ACHN renal = test system: ACHN renal
COLO 205 colon = test system: COLO 205 colon
OVCAR-3 ovarian = test system: OVCAR-3 ovarian
NCI-H460 lung = test system: NCI-H460 lung
NCI-H23 lung = test system: NCI-H23 lung
HCT-116 colon = test system: HCT-116 colon
SNB-75 CNS = test system: SNB-75 CNS
DU-145 prostate = test system: DU-145 prostate
CCRF-CEM leukemia = test system: CCRF-CEM leukemia
BT-549 breast = test system: BT-549 breast
RXF 393 renal = test system: RXF 393 renal
TK-10 renal = test system: TK-10 renal
SF-539 CNS = test system: SF-539 CNS
CAKI-1 renal = test system: CAKI-1 renal
HL-60(TB) leukemia = test system: HL-60(TB) leukemia
SR leukemia = test system: SR leukemia
UACC-257 melanoma = test system: UACC-257 melanoma
HCC-2998 colon = test system: HCC-2998 colon
KM12 colon = test system: KM12 colon
T-47D breast = test system: T-47D breast
SF-295 CNS = test system: SF-295 CNS
UACC-62 melanoma = test system: UACC-62 melanoma
IGROV1 ovarian = test system: IGROV1 ovarian
MCF7 breast = test system: MCF7 breast
SK-MEL-5 melanoma = test system: SK-MEL-5 melanoma
SK-MEL-28 melanoma = test system: SK-MEL-28 melanoma
PC-3 prostate = test system: PC-3 prostate
NCI-H226 lung = test system: NCI-H226 lung
RPMI-8226 leukemia = test system: RPMI-8226 leukemia
KM20L2 colon = test system: KM20L2 colon
HOP-92 NSCLC = test system: HOP-92 NSCLC
786-0 renal = test system: 786-0 renal
M14 melanoma = test system: M14 melanoma
DMS 273 small cell lung = test system: DMS 273 small cell lung
MDA-MB-435 = test system: MDA-MB-435
OVCAR-5 ovarian = test system: OVCAR-5 ovarian
A549 NSCLC = test system: A549 NSCLC
NCI-H522 lung = test system: NCI-H522 lung
OVCAR-8 ovarian = test system: OVCAR-8 ovarian
SNB-19 CNS = test system: SNB-19 CNS
A498 renal = test system: A498 renal
DMS 114 small cell lung = test system: DMS 114 small cell lung
HOP-62 NSCLC = test system: HOP-62 NSCLC
SK-MEL-2 melanoma = test system: SK-MEL-2 melanoma
MOLT-4 leukemia = test system: MOLT-4 leukemia
U251 CNS = test system: U251 CNS
MALME-3M melanoma = test system: MALME-3M melanoma
SF-268 CNS = test system: SF-268 CNS
LXFL 529 NSCLC = test system: LXFL 529 NSCLC
RXF-631 renal = test system: RXF-631 renal
UO-31 renal = test system: UO-31 renal
M19-MEL melanoma = test system: M19-MEL melanoma
HT29 colon = test system: HT29 colon

Work on COC(=O)NNc1c([N+](=O)[O-])cnn(-c2ccccc2)c1=O yielded a TGI (SK-OV-3 ovarian) of 17 µM, a TGI (SW-620 colon) of 2.24 µM and a TGI (SN12C renal) of 3.49 µM. The TGI (HCT-15 colon) was 5.58 µM, the TGI (MDA-N) was 4.79 µM and the TGI (HS 578T breast) was 6.98 µM. The TGI (OVCAR-4 ovarian) was 3.85 µM, the TGI (EKVX NSCLC) was 9.75 µM and the TGI (DLD-1 colon) was 3.91 µM. It also gave a TGI (HOP-18 NSCLC) of 6.28 µM, a TGI (LOX IMVI melanoma) of 3.2 µM and a TGI (ACHN renal) of 10.2 µM. The TGI (COLO 205 colon) was 6.02 µM, the TGI (OVCAR-3 ovarian) was 3.56 µM and the TGI (NCI-H460 lung) was 15.9 µM. The TGI (NCI-H23 lung) was 5.82 µM, the TGI (HCT-116 colon) was 3.9 µM and the TGI (SNB-75 CNS) was 19.5 µM. It also gave a TGI (DU-145 prostate) of 16.9 µM, a TGI (CCRF-CEM leukemia) of 1.55 µM and a TGI (BT-549 breast) of 3.21 µM. The TGI (RXF 393 renal) was 10.1 µM, the TGI (TK-10 renal) was 32.5 µM and the TGI (SF-539 CNS) was 8.22 µM. The TGI (CAKI-1 renal) was 8.24 µM, the TGI (HL-60(TB) leukemia) was 3.06 µM and the TGI (SR leukemia) was 0.981 µM. The TGI (UACC-257 melanoma) was 6.33 µM, the TGI (HCC-2998 colon) was 9.72 µM and the TGI (KM12 colon) was 16.9 µM. The TGI (T-47D breast) was 4.54 µM, the TGI (SF-295 CNS) was 8.37 µM and the TGI (UACC-62 melanoma) was 5.15 µM. For the same compound, the TGI (IGROV1 ovarian) was 36.2 µM, the TGI (MCF7 breast) was 18 µM and the TGI (SK-MEL-5 melanoma) was 8.36 µM. For the same compound, the TGI (SK-MEL-28 melanoma) was 7.05 µM, the TGI (PC-3 prostate) was 3.21 µM and the TGI (NCI-H226 lung) was 9.78 µM. The TGI (RPMI-8226 leukemia) was 19.2 µM, the TGI (KM20L2 colon) was 7.78 µM and the TGI (HOP-92 NSCLC) was 3.9 µM. For the same compound, the TGI (786-0 renal) was 7.39 µM, the TGI (M14 melanoma) was 3.29 µM and the TGI (DMS 273 small cell lung) was 4 µM. It also gave a TGI (MDA-MB-435) of 3.03 µM, a TGI (OVCAR-5 ovarian) of 8.23 µM and a TGI (A549 NSCLC) of 28.2 µM. For the same compound, the TGI (NCI-H522 lung) was 2.6 µM, the TGI (OVCAR-8 ovarian) was 3.75 µM and the TGI (SNB-19 CNS) was 23.2 µM. The TGI (A498 renal) was 78.2 µM, the TGI (DMS 114 small cell lung) was 13.8 µM and the TGI (HOP-62 NSCLC) was 14.9 µM. The TGI (SK-MEL-2 melanoma) was 11.5 µM, the TGI (MOLT-4 leukemia) was 2.61 µM and the TGI (U251 CNS) was 4.59 µM. For the same compound, the TGI (MALME-3M melanoma) was 5.51 µM, the TGI (SF-268 CNS) was 7.71 µM and the TGI (LXFL 529 NSCLC) was 3.16 µM. The TGI (RXF-631 renal) was 3.88 µM, the TGI (UO-31 renal) was 15.9 µM and the TGI (M19-MEL melanoma) was 3.43 µM. The TGI (HT29 colon) was 3.81 µM.
